Test results: patent publication US20210379049A1, “PPAR-gamma AGONIST FOR TREATMENT OF BLOOD CANCERS” (Coherus Biosciences, Inc, priority 2016, published 2021)

How the values were obtained:
adiponectin [1] = assay: 14-day study: serum adiponectin levels in healthy subjects; assay type: in vivo, human; settings: 0.1 mg INT131 daily for 14 days
Experimental: A study was conducted to determine the effect of INT131 on serum adiponectin levels. Thirty healthy subjects were randomly selected to receive either placebo, 0.1 mg INT131, 1 mg INT131 or 4 mg INT131 daily for 14 days. To measure adiponectin levels blood was drawn at Days 1, 4, 8 and 14.

adiponectin [2] = assay: 24-week randomized, double-blind, placebo-controlled study: serum adiponectin levels in subjects with type 2 diabetes; assay type: in vivo, human; settings: for Mean Adiponectin Week 24 / Mean Adiponectin Week 0: type 2 diabetes subjects; for Mean Adiponectin Week 0: baseline (Week 0)
Experimental: A randomized, double-blind, placebo-controlled, 24-week study was conducted in which adiponectin levels were measured. […] 367 subjects with type 2 diabetes (TD2)—a disease in which patient adiponectin levels are reduced-were randomly assigned to receive either 0.5, 1, 2 or 3 milligrams (“mg”) of INT131 besylate, 45 mg of pioglitazone or placebo daily for 24 weeks. To measure adiponectin levels blood was drawn at Weeks 0, 2, 6, 12 and 24.
At baseline (Week 0) mean adiponectin levels were 1.94 micrograms per milliliter (“μg/mL”). The mean adiponectin levels at baseline and Week 24, and the mean change in adiponectin levels from baseline (Week 0) to Week 24 are disclosed in Table 1, below. The standard deviation for samples tested in each group is listed in (parenthesis). Mean baseline adiponectin values were similar for the treatment groups.

[3] = subjects taking INT131 vs those taking pioglitazone; DePaoli et al. 2014; cited from earlier work

Row | Structure (SMILES) | change in serum adiponectin levels from Day 1 to Day 14 and over placebo (adiponectin [1]) | treatment comparison of adiponectin levels with pioglitazone 45 mg (adiponectin [2]; 0.5 mg, 1 mg and 3 mg doses of INT131 vs pioglitazone 45 mg, p≤0.0408) | treatment comparison of adiponectin levels with placebo (adiponectin [2]; 1 mg, 2 mg and 3 mg doses of INT131 vs placebo, p≤0.0109) | Mean Adiponectin Week 24 (adiponectin [2]; Week 24, 0.5 mg INT131 daily) [µg/mL] | Mean Adiponectin Week 24 (adiponectin [2]; Week 24, 1 mg INT131 daily) [µg/mL] | Mean Adiponectin Week 24 (adiponectin [2]; Week 24, 2 mg INT131 daily) [µg/mL] | Mean Adiponectin Week 24 (adiponectin [2]; Week 24, 3 mg INT131 daily) [µg/mL] | Mean Adiponectin Week 0 (adiponectin [2]; 0.5 mg INT131 daily group) [µg/mL] | Mean Adiponectin Week 0 (adiponectin [2]; 1 mg INT131 daily group) [µg/mL] | Mean Adiponectin Week 0 (adiponectin [2]; 2 mg INT131 daily group) [µg/mL] | Mean Adiponectin Week 0 (adiponectin [2]; 3 mg INT131 daily group) [µg/mL] | edema, weight gain and hemodilution versus pioglitazone [3] | Mean Adiponectin Week 24 (adiponectin [2]; Week 24, 45 mg pioglitazone daily) [µg/mL] | Mean Adiponectin Week 0 (adiponectin [2]; 45 mg pioglitazone daily group) [µg/mL]
1 | O=S(=O)(Nc1cc(Cl)c(Oc2cnc3ccccc3c2)c(Cl)c1)c1ccc(Cl)cc1Cl [INT131] | no significant change | statistically significant | statistically significant | 2.28 | 3.15 | 5.14 | 5.83 | 1.73 | 1.87 | 1.87 | 2.00 | less edema, weight gain, and hemodilution |  | 
2 | CCc1ccc(CCOc2ccc(CC3SC(=O)NC3=O)cc2)nc1 (centres unmarked) [Pioglitazone, pioglitazone, reference compound] |  |  |  |  |  |  |  |  |  |  |  |  | 5.28 | 2.32
